From patent US20100183692A1, “COMPOSITIONS” (priority 2007, published 2010)
Entries after “also recorded” stand apart in the source; their conditions may differ.

Legend:
Type in all cases: cell-based
[1] = tested on: Aspergillus niger ATCC 16404 spores; experiment: Sporicidal effect of test compounds in water; settings: for Spores/ml / Reduction factor: 0.1% test compound in water, after 7 days; for Reduction factor: count of negative control divided by count of test compound; for Reduction of spore counts / sporicidal effect in water (in words): 0.1% test compound, 7 days
Description: The reduction factor is determined by growing a suitable test organism (Aspergillus niger for fungi, Pseudomonas aeruginosa for gram-negative bacteria and Staphylococcus aureus for gram-positive bacteria) on a suitable culture medium on agar plates, harvesting and adding to a personal care product composition in a density of 3×10^5 organism/ml and counting the surviving organisms in the probe and a negative control at defined time interval, commonly 7 days. The count of the negative control is divided by the count of the probe and thereby the reduction factor is determined (compare example 1).
Aspergillus niger ATCC 16404 spores are added to water to obtain a density of 3×10^5 spores 1 ml. In order to prepare the spores, the test strain is grown for 5 days on potato dextrose agar at room temperature. The spores are harvested with a solution containing 0.1% Tween 80, peptone 0.1% and NaCl 0.85% and the spore concentration is adjusted to the density indicated above.
Test compounds are dissolved in dipropyleneglycol to a concentration of 20%.
These stock solutions are added to 10 ml aliquots of the spore suspension to obtain a final concentration of the test compounds of 0.1%. The sporicidal effect is shown by a reduction of spore counts after 7 days.
The reduction factor is determined as follows. Aliquots of the above prepared suspension of microorganisms (here: spore suspension prepared as described above) are plated on a suitable agar medium (see above) and the developing colonies are counted both for samples with test compound and for a negative probe (water). The count of the negative control is divided by the count of the test compound and thereby the reduction factor is determined. A negative control (water) accordingly has a reduction factor of 1 (no effect on the microorganism).

[2] = tested on: Aspergillus niger ATCC 16404 spores; experiment: Sporicidal effect of a) and b) compounds in a cosmetic cream; settings: for Reduction factor: cosmetic cream
Description: A preservative-free cosmetic cream for application to the human skin is used (Cremor basalis, Fagron GmbH, Barsbüttel, Germany).
Test samples of cream contain different amounts of compounds a) and b) added to an aliquot of 10 g of the cream in 50 ml tubes to give a concentration (w/w) of 0.125-0.25% as shown in the table below. After addition of the compounds a) and b), the cream is thoroughly mixed to achieve a homogeneous distribution.
After 1-3 days of equilibration of the cream (storage at room temperature to achieve a homogenous partitioning of compounds between oil and water phase), to each sample 100 μl of a spore suspension of Aspergillus niger ATCC 16404 containing 3×10^7 spores/ml (prepared as described in example 1) is added. After regular test intervals (7 days), samples of 1 g cream are removed and added to 20 ml of a neutralizer solution containing 0.2% lecithin, 2% Tween 80 and 0.5% NaCl. These dilutions are vigorously shaken for 10 min until the cream is dissolved, and then aliquots of this solution are spread plated on potato dextrose agar containing 0.2% Tween 80. After a sufficient time for colonies to grow (about 48 h), the number of colony forming units (and therefore surviving spores in the cream) are counted.

[3] = tested on: Staphylococcus aureus (DSMZ 799) and Pseudomonas aeruginosa (ATCC 15442), mixed 1:1; experiment: Bactericidal effect of a) and b) compounds in a cosmetic cream
Description: Test samples of the same cream used in Example 2 contain different amounts of compounds a) and b) added to an aliquot of 10 g of the cream in 50 ml tubes to give a concentration (w/w) of 0.125-0.25% as shown in the table below. After addition of the compounds a) and b), the cream is thoroughly mixed to achieve a homogeneous distribution.
As test organisms Staphylococcus aureus (DSMZ 799) and Pseudomonas aeruginosa (ATCC 15442) are used. The strains are grown overnight in Mueller-Hinton broth and adjusted to a cell density of 1×10^8 cfu (colony forming units) per ml.
The two bacterial strains are mixed in a ratio of 1:1 and 100 μl of this mixed inoculum is added to 10 ml aliquots of the cosmetic cream.
The resulting mixtures are incubated at room temperature and at the regular intervals samples are removed, suspended in neutralizer solution and diluted as described above (example 2).
Aliquots of these suspended and diluted samples are plated on tryptic soy agar supplemented with 0.5% Tween 80 and then incubated for 24 h at 37° C. Surviving bacteria are counted.

[4] = fragrant acid (sodium salt) 0.125% w/w, 4-HBA 0, after 7 days
[5] = fragrant acid (sodium salt) 0.250% w/w, 4-HBA 0, after 7 days
[6] = fragrant acid (sodium salt) 0.125% w/w, 4-HBA 0, after 24 h
[7] = fragrant acid (sodium salt) 0.250% w/w, 4-HBA 0, after 24 h

Structure (SMILES) | Spores/ml [1] | Reduction factor [1] | Reduction of spore counts / sporicidal effect in water (in words) [1] | Sporicidal activity in cream (in words) ([2]; combined with cinnamic acid or anisic acid in cream at 0.125% concentration, within 7 days) | Reduction factor ([2]; no fragrant acid, 4-HBA 0.125% w/w, after 7 days) | Reduction factor ([3]; no fragrant acid, 4-HBA 0.125% w/w, bacterial counts after 24 h) | Reduction factor [2, 4] | Reduction factor [2, 5] | Reduction factor [3, 6] | Reduction factor [3, 7]
O=Cc1ccc(O)cc1 [4-hydroxybenzaldehyde] | >1.2 × 10^5 Spores/ml | <2 | no significant sporicidal effect; also recorded: No significant reduction of spore counts | complete killing of spores | 5.5 | 10 |  |  |  | 
COc1ccc(C=O)cc1 [4-methoxy-benzaldehyde, 4-methoxybenzaldehyde] | 4.68 × 10^4 Spores/ml | 5 | No significant reduction of spore counts |  |  |  |  |  |  | 
COc1ccc(C(=O)O)cc1 [Anisic acid, anisic acid] |  |  |  |  |  |  | 1.4 | 12.5 | 1 | 5
O=C(O)/C=C/c1ccccc1 [Cinnamic acid, cinnamic acid] |  |  |  |  |  |  | 1.0 | 1.1 | 2.0 | 10
